Laboratory results taken from the supplement of paper PMC8617591.

How the values were obtained:
[1] = system: Mycobacterium tuberculosis Erdman (autoluminescent); assay: GRinf, maximum normalised growth rate inhibition (unitless (-1 to 1)); higher = less effect (negative = killing)
Experimental: (§1)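 DiaMOND equipotent two-drug combination dose responses against autoluminescent M. tuberculosis Erdman in 8 in vitro models. Read-out is OD600, or luminescence for the intracellular and dormancy models, normalised to untreated wells. Hill-fit Einf, AUC25 and GRinf are potency metrics; FIC50 and FIC90 are Loewe-additivity fractional inhibitory concentrations, given as log2 (negative = synergy). Replicates are averaged.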

[2] = system: Mycobacterium tuberculosis Erdman (autoluminescent); assay: Einf, fitted maximum growth inhibition of combination (fraction); higher = stronger maximal inhibition
Experimental: as §1

[3] = system: Mycobacterium tuberculosis Erdman (autoluminescent); assay: FIC50 (Loewe) at 50% inhibition (log2); higher = more antagonistic
Experimental: as §1

[4] = system: Mycobacterium tuberculosis Erdman (autoluminescent); assay: FIC90 (Loewe) at 90% inhibition (log2); higher = more antagonistic
Experimental: as §1

[5] = system: Mycobacterium tuberculosis Erdman (autoluminescent); assay: AUC25, normalised area under dose response up to IC25 (fraction (0-1)); higher = more potent at low dose
Experimental: as §1

CC(=O)NC[C@H]1CN(c2ccc(N3CCOCC3)c(F)c2)C(=O)O1 [linezolid] + CO[C@H]1/C=C/O[C@@]2(C)Oc3c(C)c(O)c4c(O)c(c(/C=N/N5CCN(C)CC5)c(O)c4c3C2=O)NC(=O)/C(C)=C\C=C\[C@H](C)[C@H](O)[C@@H](C)[C@@H](O)[C@@H](C)[C@H](OC(C)=O)[C@@H]1C [rifampicin]
Conditions	AUC25, [5]	Einf, [2]	FIC50, [3]	FIC90, [4]	GRinf, [1]
in vitro model: acidic pH 5.7, time point: constant (~7 days, model-specific)	0.0878	0.902	0.204	–	-0.289
in vitro model: acidic pH 5.7, time point: terminal (~4-5 doublings, model-specific)	0.0656	0.983	0.31	0.0747	-0.211
in vitro model: intracellular J774, time point: constant = terminal	–	0.955	–	-0.706	-0.24

Conditions	AUC25, [5]	Einf, [2]	FIC50, [3]	FIC90, [4]	GRinf, [1]
in vitro model: butyrate, time point: constant (~7 days, model-specific)	0.078	0.87	0.117	–	0.146
in vitro model: butyrate, time point: terminal (~4-5 doublings, model-specific)	0.0601	0.938	-0.0786	-0.707	0.11
in vitro model: cholesterol 0.05 mM, time point: constant (~7 days, model-specific)	0.154	0.725	-0.622	–	-0.00382
in vitro model: cholesterol 0.05 mM, time point: terminal (~4-5 doublings, model-specific)	0.13	0.935	-0.194	-0.403	-0.175
in vitro model: cholesterol-high 0.2 mM, time point: constant (~7 days, model-specific)	0.101	0.997	-0.0412	-0.846	-0.295
in vitro model: cholesterol-high 0.2 mM, time point: terminal (~4-5 doublings, model-specific)	0.0937	1	0.555	-0.0135	-0.687
in vitro model: dormancy (butyrate + nitrate, low O2), time point: constant (~7 days, model-specific)	0.0704	0.905	0.505	0.314	0.177
in vitro model: dormancy (butyrate + nitrate, low O2), time point: terminal (~4-5 doublings, model-specific)	0.0353	0.969	0.176	0.0537	-0.0276
in vitro model: standard 7H9 glycerol, time point: constant = terminal	0.0527	0.885	0.284	–	0.156
in vitro model: valerate, time point: constant (~7 days, model-specific)	0.0582	0.865	0.191	–	0.0036
in vitro model: valerate, time point: terminal (~4-5 doublings, model-specific)	0.0309	0.945	0.171	-0.411	0.00264

O=[N+]([O-])c1cn2c(n1)OC[C@@H](OCc1ccc(OC(F)(F)F)cc1)C2 [pretomanid] + NC(=O)c1cnccn1 [pyrazinamide]
Conditions	AUC25, [5]	Einf, [2]	FIC50, [3]	FIC90, [4]	GRinf, [1]
in vitro model: acidic pH 5.7, time point: constant (~7 days, model-specific)	0.088	0.831	-0.419	-0.689	-0.435
in vitro model: acidic pH 5.7, time point: terminal (~4-5 doublings, model-specific)	0.0893	0.968	-0.536	-1.56	-0.433
in vitro model: intracellular J774, time point: constant = terminal	–	1	–	-0.0198	-0.358

Conditions	AUC25, [5]	Einf, [2]	FIC50, [3]	FIC90, [4]	GRinf, [1]
in vitro model: butyrate, time point: constant (~7 days, model-specific)	0.115	0.869	-0.24	1.15	0.144
in vitro model: butyrate, time point: terminal (~4-5 doublings, model-specific)	0.109	0.936	-0.0126	1.79	0.0694
in vitro model: cholesterol 0.05 mM, time point: constant (~7 days, model-specific)	0.137	0.752	–	–	-0.38
in vitro model: cholesterol 0.05 mM, time point: terminal (~4-5 doublings, model-specific)	0.109	0.922	0.0466	–	-0.194
in vitro model: cholesterol-high 0.2 mM, time point: constant (~7 days, model-specific)	0.0725	0.886	-0.0986	–	-0.169
in vitro model: cholesterol-high 0.2 mM, time point: terminal (~4-5 doublings, model-specific)	0.0665	0.998	0.341	-0.19	-0.445
in vitro model: dormancy (butyrate + nitrate, low O2), time point: constant (~7 days, model-specific)	0.0996	0.936	-0.574	0.149	0.076
in vitro model: dormancy (butyrate + nitrate, low O2), time point: terminal (~4-5 doublings, model-specific)	0.0823	0.995	-0.829	0.679	-0.921
in vitro model: standard 7H9 glycerol, time point: constant = terminal	0.067	0.915	-0.256	–	0.0921
in vitro model: valerate, time point: constant (~7 days, model-specific)	0.093	0.833	0.0923	–	0.163
in vitro model: valerate, time point: terminal (~4-5 doublings, model-specific)	0.065	0.923	-0.176	-0.316	0.118

CC(C)/N=c1\cc2n(-c3ccc(Cl)cc3)c3ccccc3nc-2cc1Nc1ccc(Cl)cc1 [clofazimine] + CO[C@H]1/C=C/O[C@@]2(C)Oc3c(C)c(O)c4c(O)c(c(/C=N/N5CCN(C)CC5)c(O)c4c3C2=O)NC(=O)/C(C)=C\C=C\[C@H](C)[C@H](O)[C@@H](C)[C@@H](O)[C@@H](C)[C@H](OC(C)=O)[C@@H]1C [rifampicin]
Conditions	AUC25, [5]	Einf, [2]	FIC50, [3]	FIC90, [4]	GRinf, [1]
in vitro model: acidic pH 5.7, time point: constant (~7 days, model-specific)	0.0889	0.874	-0.0436	-1.95	-0.208
in vitro model: acidic pH 5.7, time point: terminal (~4-5 doublings, model-specific)	0.0797	0.986	0.0811	-0.172	-0.273
in vitro model: intracellular J774, time point: constant = terminal	–	0.967	–	0.0974	-0.265

Conditions	AUC25, [5]	Einf, [2]	FIC50, [3]	FIC90, [4]	GRinf, [1]
in vitro model: butyrate, time point: constant (~7 days, model-specific)	0.117	0.936	0.216	0.25	-0.0602
in vitro model: butyrate, time point: terminal (~4-5 doublings, model-specific)	0.104	0.979	0.0822	0.348	-0.0537
in vitro model: cholesterol 0.05 mM, time point: constant (~7 days, model-specific)	0.113	0.573	0.4	–	0.303
in vitro model: cholesterol 0.05 mM, time point: terminal (~4-5 doublings, model-specific)	0.0926	0.867	1.24	2.57	0.0118
in vitro model: cholesterol-high 0.2 mM, time point: constant (~7 days, model-specific)	0.0989	0.907	0.773	2.49	-0.497
in vitro model: cholesterol-high 0.2 mM, time point: terminal (~4-5 doublings, model-specific)	0.0908	1	1.01	0.724	-0.955
in vitro model: dormancy (butyrate + nitrate, low O2), time point: constant (~7 days, model-specific)	0.0883	0.893	0.2	-0.494	0.194
in vitro model: dormancy (butyrate + nitrate, low O2), time point: terminal (~4-5 doublings, model-specific)	0.062	0.97	0.0425	0.45	-0.059
in vitro model: standard 7H9 glycerol, time point: constant = terminal	0.103	0.935	-0.376	-0.394	0.00747
in vitro model: valerate, time point: constant (~7 days, model-specific)	0.119	0.907	0.421	–	-0.0677
in vitro model: valerate, time point: terminal (~4-5 doublings, model-specific)	0.0808	0.955	0.569	1.43	0.00769
